In paper PMC3399817 (PLoS ONE, 2012):

How the values were obtained:
Assay in all cases: KINOMEscan
Assay type in all cases: binding
[1] = target: T1, CDK3 (Homo sapiens, UniProt Q00526); conditions: CDK3, 1 uM
T1 construct: purchased Ambit KINOMEscan (DiscoverX)
Outline: (§1)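 Compounds were each tested at a single concentration of 1 μM in a binding-based kinase panel.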

[2] = target: T2, CHEK1 (Homo sapiens, UniProt O14757); conditions: CHEK1, 1 uM
T2 construct: purchased Ambit KINOMEscan (DiscoverX)
Outline: as §1

[3] = target: T3, CLK4 (Homo sapiens, UniProt Q9HAZ1); conditions: CLK4, 1 uM
T3 construct: purchased Ambit KINOMEscan (DiscoverX)
T3 sequence (Q9HAZ1 whole entry): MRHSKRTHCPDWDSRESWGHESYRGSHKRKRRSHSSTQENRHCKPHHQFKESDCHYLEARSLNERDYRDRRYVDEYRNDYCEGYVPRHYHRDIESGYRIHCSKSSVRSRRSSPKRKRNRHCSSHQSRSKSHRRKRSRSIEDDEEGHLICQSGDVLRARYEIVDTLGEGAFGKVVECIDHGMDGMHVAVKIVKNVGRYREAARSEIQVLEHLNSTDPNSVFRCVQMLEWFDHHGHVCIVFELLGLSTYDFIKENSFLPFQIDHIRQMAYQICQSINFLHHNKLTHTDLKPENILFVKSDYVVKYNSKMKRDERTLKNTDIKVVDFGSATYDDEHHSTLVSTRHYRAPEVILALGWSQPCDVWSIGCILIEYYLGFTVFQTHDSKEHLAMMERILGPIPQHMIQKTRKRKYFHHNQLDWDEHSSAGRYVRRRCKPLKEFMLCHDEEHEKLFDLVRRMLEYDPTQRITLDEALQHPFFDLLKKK
Outline: as §1

[4] = target: T4, CTK (Homo sapiens, UniProt P42679); conditions: 1 uM
T4 construct: purchased Ambit KINOMEscan (DiscoverX)
Outline: as §1

[5] = target: T5, FLT3(N841I) (Homo sapiens, UniProt P36888, N841I); conditions: 1 uM
T5 construct: purchased Ambit KINOMEscan (DiscoverX)
Outline: as §1

[6] = target: T6, HIPK1 (Homo sapiens, UniProt Q86Z02); conditions: for % binding compared to no inhibitor control: HIPK1, 1 uM
T6 construct: purchased Ambit KINOMEscan (DiscoverX)
T6 sequence (Q86Z02 whole entry): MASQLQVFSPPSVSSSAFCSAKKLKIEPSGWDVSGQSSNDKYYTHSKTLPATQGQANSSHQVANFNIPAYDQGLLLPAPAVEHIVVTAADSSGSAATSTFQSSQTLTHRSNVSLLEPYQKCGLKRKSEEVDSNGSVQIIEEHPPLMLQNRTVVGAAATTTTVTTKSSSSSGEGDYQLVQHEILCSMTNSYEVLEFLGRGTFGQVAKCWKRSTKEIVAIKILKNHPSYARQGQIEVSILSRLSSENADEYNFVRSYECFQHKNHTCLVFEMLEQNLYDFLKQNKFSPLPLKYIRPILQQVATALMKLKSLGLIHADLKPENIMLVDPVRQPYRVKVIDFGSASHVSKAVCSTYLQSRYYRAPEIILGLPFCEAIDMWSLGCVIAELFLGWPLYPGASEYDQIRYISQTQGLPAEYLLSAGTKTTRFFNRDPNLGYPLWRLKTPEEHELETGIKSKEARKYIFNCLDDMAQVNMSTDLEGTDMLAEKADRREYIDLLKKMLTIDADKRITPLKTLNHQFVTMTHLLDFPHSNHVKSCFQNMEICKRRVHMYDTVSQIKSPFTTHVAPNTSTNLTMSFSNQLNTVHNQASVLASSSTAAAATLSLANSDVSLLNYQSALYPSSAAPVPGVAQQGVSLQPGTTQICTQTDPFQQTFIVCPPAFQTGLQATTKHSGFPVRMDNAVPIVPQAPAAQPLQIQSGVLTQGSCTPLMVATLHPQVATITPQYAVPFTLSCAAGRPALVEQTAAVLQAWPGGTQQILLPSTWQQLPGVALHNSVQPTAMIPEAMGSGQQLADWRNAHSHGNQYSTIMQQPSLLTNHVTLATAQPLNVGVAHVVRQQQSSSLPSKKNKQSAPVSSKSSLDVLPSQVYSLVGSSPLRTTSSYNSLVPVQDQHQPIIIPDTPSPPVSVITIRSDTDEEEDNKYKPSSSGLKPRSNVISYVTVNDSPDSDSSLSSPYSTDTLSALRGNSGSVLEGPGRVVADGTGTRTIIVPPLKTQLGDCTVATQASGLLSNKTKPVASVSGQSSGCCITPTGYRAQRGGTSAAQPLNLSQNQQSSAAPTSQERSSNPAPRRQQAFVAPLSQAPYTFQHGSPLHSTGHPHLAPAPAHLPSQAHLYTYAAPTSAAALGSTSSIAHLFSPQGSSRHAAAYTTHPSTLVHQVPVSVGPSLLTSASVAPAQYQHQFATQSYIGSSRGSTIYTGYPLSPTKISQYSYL
Outline: as §1

[7] = target: T7, IGF1R (Homo sapiens, UniProt P08069); conditions: 1 uM
T7 construct: purchased Ambit KINOMEscan (DiscoverX)
Outline: as §1

[8] = target: T8, INSR (Homo sapiens, UniProt P06213); conditions: 1 uM
T8 construct: purchased Ambit KINOMEscan (DiscoverX)
Outline: as §1

[9] = target: T9, MAP3K15 (Homo sapiens, UniProt Q6ZN16); conditions: MAP3K15, 1 uM
T9 construct: purchased Ambit KINOMEscan (DiscoverX)
T9 sequence (Q6ZN16 whole entry): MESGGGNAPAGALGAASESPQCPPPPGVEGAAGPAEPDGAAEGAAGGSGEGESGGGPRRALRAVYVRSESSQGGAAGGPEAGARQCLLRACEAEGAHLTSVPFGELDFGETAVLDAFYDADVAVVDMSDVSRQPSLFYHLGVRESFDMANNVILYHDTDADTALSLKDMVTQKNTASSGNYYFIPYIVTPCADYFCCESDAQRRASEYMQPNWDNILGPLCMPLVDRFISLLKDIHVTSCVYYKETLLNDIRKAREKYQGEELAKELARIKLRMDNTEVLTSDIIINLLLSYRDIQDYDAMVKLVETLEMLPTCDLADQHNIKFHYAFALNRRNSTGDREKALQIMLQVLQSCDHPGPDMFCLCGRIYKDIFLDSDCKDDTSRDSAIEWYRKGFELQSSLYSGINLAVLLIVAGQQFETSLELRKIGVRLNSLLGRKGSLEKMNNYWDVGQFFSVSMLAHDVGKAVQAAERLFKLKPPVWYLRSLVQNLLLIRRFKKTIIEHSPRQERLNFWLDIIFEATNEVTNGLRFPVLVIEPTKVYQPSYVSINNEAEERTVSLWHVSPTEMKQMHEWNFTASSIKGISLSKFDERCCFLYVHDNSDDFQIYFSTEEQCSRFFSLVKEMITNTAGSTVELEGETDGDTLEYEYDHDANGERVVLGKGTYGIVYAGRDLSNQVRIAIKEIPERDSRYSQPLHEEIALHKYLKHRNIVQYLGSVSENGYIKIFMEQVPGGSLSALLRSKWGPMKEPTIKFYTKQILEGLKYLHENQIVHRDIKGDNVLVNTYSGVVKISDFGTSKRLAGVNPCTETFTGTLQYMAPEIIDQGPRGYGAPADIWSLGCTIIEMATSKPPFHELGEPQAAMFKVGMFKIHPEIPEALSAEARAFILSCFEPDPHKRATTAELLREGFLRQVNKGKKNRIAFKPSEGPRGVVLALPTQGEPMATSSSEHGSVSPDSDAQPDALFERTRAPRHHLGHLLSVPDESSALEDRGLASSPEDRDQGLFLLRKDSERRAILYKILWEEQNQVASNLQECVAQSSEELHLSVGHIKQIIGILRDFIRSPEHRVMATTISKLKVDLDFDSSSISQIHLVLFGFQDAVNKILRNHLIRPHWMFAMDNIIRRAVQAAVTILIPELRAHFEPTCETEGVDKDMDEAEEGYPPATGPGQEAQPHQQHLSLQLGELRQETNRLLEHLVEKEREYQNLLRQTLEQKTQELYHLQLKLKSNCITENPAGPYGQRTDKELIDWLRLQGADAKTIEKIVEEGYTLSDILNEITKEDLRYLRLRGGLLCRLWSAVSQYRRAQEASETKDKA
Outline: as §1

[10] = target: T10, MAP4K2 (Homo sapiens, UniProt Q12851); conditions: for % binding compared to no inhibitor control: MAP4K2, 1 uM
T10 construct: purchased Ambit KINOMEscan (DiscoverX)
T10 sequence (Q12851 1-820): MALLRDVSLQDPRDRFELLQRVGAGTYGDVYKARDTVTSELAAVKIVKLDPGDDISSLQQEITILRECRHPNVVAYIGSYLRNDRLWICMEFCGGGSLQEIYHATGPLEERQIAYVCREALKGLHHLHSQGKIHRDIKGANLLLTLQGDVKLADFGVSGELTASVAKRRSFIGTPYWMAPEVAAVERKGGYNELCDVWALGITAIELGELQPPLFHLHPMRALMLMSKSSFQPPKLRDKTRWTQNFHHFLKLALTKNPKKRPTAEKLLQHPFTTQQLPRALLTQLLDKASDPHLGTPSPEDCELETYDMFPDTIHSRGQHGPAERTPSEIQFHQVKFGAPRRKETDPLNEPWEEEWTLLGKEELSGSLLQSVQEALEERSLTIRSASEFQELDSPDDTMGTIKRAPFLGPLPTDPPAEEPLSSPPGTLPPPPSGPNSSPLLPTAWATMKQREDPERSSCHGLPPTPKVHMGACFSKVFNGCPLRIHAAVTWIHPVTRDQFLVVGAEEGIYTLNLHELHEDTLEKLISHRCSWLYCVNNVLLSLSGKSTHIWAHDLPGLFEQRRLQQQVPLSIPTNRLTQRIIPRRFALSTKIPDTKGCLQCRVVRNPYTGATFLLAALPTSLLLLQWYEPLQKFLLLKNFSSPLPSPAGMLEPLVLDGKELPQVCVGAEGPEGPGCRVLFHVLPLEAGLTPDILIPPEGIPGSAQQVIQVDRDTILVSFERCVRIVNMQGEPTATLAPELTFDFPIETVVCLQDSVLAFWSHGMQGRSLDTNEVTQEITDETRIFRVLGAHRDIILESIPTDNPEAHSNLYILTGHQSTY
Outline: as §1

[11] = target: T11, MAP4K4 (Homo sapiens, UniProt O95819); conditions: MAP4K4, 1 uM
T11 construct: purchased Ambit KINOMEscan (DiscoverX)
Outline: as §1

[12] = target: T12, MAP4K5 (Homo sapiens, UniProt Q9Y4K4); conditions: MAP4K5, 1 uM
T12 construct: purchased Ambit KINOMEscan (DiscoverX)
Outline: as §1

[13] = target: T13, MARK4 (Homo sapiens, UniProt Q96L34); conditions: MARK4, 1 uM
T13 construct: purchased Ambit KINOMEscan (DiscoverX)
Outline: as §1

[14] = target: T14, MEK4 (Homo sapiens, UniProt P45985); conditions: MEK4, 1 uM
T14 construct: purchased Ambit KINOMEscan (DiscoverX)
Outline: as §1

[15] = target: T15, NEK2 (Homo sapiens, UniProt P51955); conditions: NEK2, 1 uM
T15 construct: purchased Ambit KINOMEscan (DiscoverX)
Outline: as §1

[16] = target: T16, PAK2 (Homo sapiens, UniProt Q13177); conditions: PAK2, 1 uM
T16 construct: purchased Ambit KINOMEscan (DiscoverX)
T16 sequence (Q13177 whole entry): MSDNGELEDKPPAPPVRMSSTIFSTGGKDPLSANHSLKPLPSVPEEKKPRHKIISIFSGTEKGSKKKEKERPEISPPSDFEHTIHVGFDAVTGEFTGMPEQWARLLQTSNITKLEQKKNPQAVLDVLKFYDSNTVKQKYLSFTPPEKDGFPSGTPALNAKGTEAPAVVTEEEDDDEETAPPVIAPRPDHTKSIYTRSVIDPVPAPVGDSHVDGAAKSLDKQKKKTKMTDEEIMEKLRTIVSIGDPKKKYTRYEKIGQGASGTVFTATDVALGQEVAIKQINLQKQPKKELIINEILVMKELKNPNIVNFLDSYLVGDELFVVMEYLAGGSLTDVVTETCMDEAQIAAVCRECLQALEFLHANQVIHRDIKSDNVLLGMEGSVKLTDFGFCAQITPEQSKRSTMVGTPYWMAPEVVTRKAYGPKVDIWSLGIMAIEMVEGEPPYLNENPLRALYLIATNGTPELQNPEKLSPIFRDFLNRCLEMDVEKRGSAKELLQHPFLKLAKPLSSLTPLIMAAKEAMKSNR
Outline: as §1

[17] = target: T17, PCTK3 (Homo sapiens, UniProt Q07002); conditions: PCTK3, 1 uM
T17 construct: purchased Ambit KINOMEscan (DiscoverX)
Outline: as §1

[18] = target: T18, PIK3CA(M1043I) (Homo sapiens, UniProt P42336, M1043I); conditions: 1 uM
T18 construct: purchased Ambit KINOMEscan (DiscoverX)
Outline: as §1

[19] = target: T19, PLK1 (Homo sapiens, UniProt P53350); conditions: PLK1, 1 uM
T19 construct: purchased Ambit KINOMEscan (DiscoverX)
Outline: as §1

[20] = target: T20, RPS6KA6(Kin.Dom.2-C-terminal) (Homo sapiens, UniProt Q9UK32); conditions: 1 uM
T20 construct: RPS6KA6(Kin.Dom.2-C-terminal); purchased Ambit KINOMEscan (DiscoverX)
Outline: as §1

[21] = target: T21, SBK1 (Homo sapiens, UniProt Q52WX2); conditions: SBK1, 1 uM
T21 construct: purchased Ambit KINOMEscan (DiscoverX)
T21 sequence (Q52WX2 whole entry): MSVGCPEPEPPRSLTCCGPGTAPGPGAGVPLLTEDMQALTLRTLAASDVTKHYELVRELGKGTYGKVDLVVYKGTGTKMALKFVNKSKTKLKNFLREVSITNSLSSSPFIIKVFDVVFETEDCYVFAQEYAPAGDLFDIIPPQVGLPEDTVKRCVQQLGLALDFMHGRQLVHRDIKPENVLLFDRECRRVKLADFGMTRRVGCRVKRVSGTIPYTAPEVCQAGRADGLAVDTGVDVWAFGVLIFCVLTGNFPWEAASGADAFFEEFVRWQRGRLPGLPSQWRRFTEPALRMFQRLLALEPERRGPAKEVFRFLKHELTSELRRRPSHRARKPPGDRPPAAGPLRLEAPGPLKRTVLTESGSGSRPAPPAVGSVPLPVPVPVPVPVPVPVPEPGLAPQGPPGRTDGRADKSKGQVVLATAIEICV
Outline: as §1

[22] = target: T22, SIK (Homo sapiens, UniProt P57059); conditions: 1 uM
T22 construct: purchased Ambit KINOMEscan (DiscoverX)
Outline: as §1

[23] = target: T23, STK16 (Homo sapiens, UniProt O75716); conditions: STK16, 1 uM
T23 construct: purchased Ambit KINOMEscan (DiscoverX)
Outline: as §1

[24] = target: T24, STK36 (Homo sapiens, UniProt Q9NRP7); conditions: STK36, 1 uM
T24 construct: purchased Ambit KINOMEscan (DiscoverX)
Outline: as §1

[25] = target: T25, TAO1 (Homo sapiens, UniProt Q9UL54); conditions: TAO1, 1 uM
T25 construct: purchased Ambit KINOMEscan (DiscoverX)
Outline: as §1

[26] = target: T26, TGFBR2 (Homo sapiens, UniProt P37173); conditions: TGFBR2, 1 uM
T26 construct: purchased Ambit KINOMEscan (DiscoverX)
Outline: as §1

[27] = target: T27, ULK1 (Homo sapiens, UniProt O75385); conditions: ULK1, 1 uM
T27 construct: purchased Ambit KINOMEscan (DiscoverX)
T27 sequence (O75385 whole entry): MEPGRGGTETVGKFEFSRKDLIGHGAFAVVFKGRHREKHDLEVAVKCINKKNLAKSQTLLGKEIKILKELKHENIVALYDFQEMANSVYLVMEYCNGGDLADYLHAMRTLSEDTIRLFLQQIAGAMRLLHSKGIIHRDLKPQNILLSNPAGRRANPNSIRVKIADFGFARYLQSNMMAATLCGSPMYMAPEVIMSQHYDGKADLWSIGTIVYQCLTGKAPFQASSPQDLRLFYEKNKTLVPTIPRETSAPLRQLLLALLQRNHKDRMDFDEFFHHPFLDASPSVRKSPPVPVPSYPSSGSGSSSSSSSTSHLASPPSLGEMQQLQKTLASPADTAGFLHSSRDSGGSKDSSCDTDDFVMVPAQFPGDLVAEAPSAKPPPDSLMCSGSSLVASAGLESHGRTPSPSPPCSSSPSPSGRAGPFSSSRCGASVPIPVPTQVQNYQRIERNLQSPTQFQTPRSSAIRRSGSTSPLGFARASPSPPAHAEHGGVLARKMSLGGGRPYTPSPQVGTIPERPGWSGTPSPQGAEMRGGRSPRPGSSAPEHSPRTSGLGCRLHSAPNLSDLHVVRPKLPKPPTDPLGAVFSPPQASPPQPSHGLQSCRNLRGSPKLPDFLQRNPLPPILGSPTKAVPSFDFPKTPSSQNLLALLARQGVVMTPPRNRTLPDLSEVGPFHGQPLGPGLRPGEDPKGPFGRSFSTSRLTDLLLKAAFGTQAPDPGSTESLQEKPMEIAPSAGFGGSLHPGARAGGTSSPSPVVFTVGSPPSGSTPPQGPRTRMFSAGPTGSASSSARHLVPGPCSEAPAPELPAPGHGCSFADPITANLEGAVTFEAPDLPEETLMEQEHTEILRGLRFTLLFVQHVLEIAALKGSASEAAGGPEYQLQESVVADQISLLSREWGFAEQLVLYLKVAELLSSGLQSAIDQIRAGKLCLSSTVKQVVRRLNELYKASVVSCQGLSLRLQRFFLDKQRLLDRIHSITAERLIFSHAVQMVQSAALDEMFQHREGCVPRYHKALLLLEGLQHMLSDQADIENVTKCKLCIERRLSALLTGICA
Outline: as §1

[28] = target: T28, WEE2 (Homo sapiens, UniProt P0C1S8); conditions: WEE2, 1 uM
T28 construct: purchased Ambit KINOMEscan (DiscoverX)
Outline: as §1

COc1ccc(-c2cc3nccn3c(Nc3ncccc3C(N)=O)n2)cc1OC.Cl.Cl [BAY61-3606, 2-[7-(3,4-dimethoxyphenyl)-imidazo [1,2-c]pyrimidin-5-ylamino] nicotinamide dihydrochloride, reference compound]
% binding compared to no inhibitor control [1]: 89% | % binding compared to no inhibitor control [2]: 100% | % binding compared to no inhibitor control [3]: 11% | % binding compared to no inhibitor control [4]: 44% | % binding compared to no inhibitor control [5]: 1.5% | % binding compared to no inhibitor control [6]: 8.8% | % inhibition ATP binding ([6]; HIPK1, KINOMEscan, 1 μM): 91.2% | % binding compared to no inhibitor control [7]: 97% | % binding compared to no inhibitor control [8]: 60% | % binding compared to no inhibitor control [9]: 100% | % binding compared to no inhibitor control [10]: 6% | % inhibition ATP binding ([10]; MAP4K2, KINOMEscan, 1 μM): 94% | % binding compared to no inhibitor control [11]: 94% | % binding compared to no inhibitor control [12]: 80% | % binding compared to no inhibitor control [13]: 88% | % binding compared to no inhibitor control [14]: 45% | % binding compared to no inhibitor control [15]: 77% | % binding compared to no inhibitor control [16]: 80% | % binding compared to no inhibitor control [17]: 92% | % binding compared to no inhibitor control [18]: 80% | % binding compared to no inhibitor control [19]: 98% | % binding compared to no inhibitor control [20]: 79% | % binding compared to no inhibitor control [21]: 96% | % binding compared to no inhibitor control [22]: 80% | % binding compared to no inhibitor control [23]: 30% | % binding compared to no inhibitor control [24]: 74% | % binding compared to no inhibitor control [25]: 100% | % binding compared to no inhibitor control [26]: 31% | % binding compared to no inhibitor control [27]: 97% | % binding compared to no inhibitor control [28]: 100%

COc1ccccc1Nc1nc(-c2ccc(OC)c(OC)c2)cc2nccn12 [BAY derivative 6]
% binding compared to no inhibitor control [1]: 94% | % binding compared to no inhibitor control [2]: 90% | % binding compared to no inhibitor control [3]: 100% | % binding compared to no inhibitor control [4]: 98% | % binding compared to no inhibitor control [5]: 53% | % binding compared to no inhibitor control [6]: 85% | % binding compared to no inhibitor control [7]: 79% | % binding compared to no inhibitor control [8]: 99% | % binding compared to no inhibitor control [9]: 86% | % binding compared to no inhibitor control [10]: 100% | % binding compared to no inhibitor control [11]: 86% | % binding compared to no inhibitor control [12]: 100% | % binding compared to no inhibitor control [13]: 75% | % binding compared to no inhibitor control [14]: 100% | % binding compared to no inhibitor control [15]: 88% | % binding compared to no inhibitor control [16]: 76% | % binding compared to no inhibitor control [17]: 100% | % binding compared to no inhibitor control [18]: 100% | % binding compared to no inhibitor control [19]: 100% | % binding compared to no inhibitor control [20]: 93% | % binding compared to no inhibitor control [21]: 100% | % binding compared to no inhibitor control [22]: 100% | % binding compared to no inhibitor control [23]: 47% | % binding compared to no inhibitor control [24]: 100% | % binding compared to no inhibitor control [25]: 96% | % binding compared to no inhibitor control [26]: 100% | % binding compared to no inhibitor control [27]: 100% | % binding compared to no inhibitor control [28]: 100%
